Source: a melting point compilation (Tetko et al.; mined from patent text by program, amines drawn as free bases though some values may be those of a salt)

Row | Structure (SMILES) | melting point [°C]
1 | Cc1ccc(NC(=O)C(C)(C)C)c(-c2cncc(Cl)n2)c1 | 80 to 83
2 | C#Cc1cnc(C)c(O)c1CO | 170 to 171
3 | COc1ccc(Nc2c(C#N)cnc3cc(OC)c(OC)cc23)cc1Cl | 278 to 280
4 | COc1ccc(CCc2nnc(-c3ccc4[nH]ncc4c3)o2)cc1C(F)(F)F | 192 to 193
5 | Nc1nccc(-c2c(-c3ccc(F)cc3)ncn2C2CCNCC2)n1 | 199 to 200
6 | CN(C)Cc1ccnc(OCCCNc2c(N)c(=O)c2=O)c1 | 212 to 214
7 | OCC1OC(n2cnc3c(OCC4CC4)ncnc32)CC1F (stereo not drawn) | 100
8 | Cc1cc(-n2cncn2)c2cc(Cl)cc(Cl)c2n1 | 220 to 222
9 | NC(=O)C(N)c1ccc(F)cc1F (stereo not drawn) | 143
10 | NC(=O)c1cc(Cl)c([N+](=O)[O-])cc1[N+](=O)[O-] | 201 to 203
11 | Nc1cc(OCCO)nc(N)n1 | 190
12 | Cc1ccc(N2CN(C)CNC2=S)c(C)c1 | 140 to 143
13 | CC1=C(C)C(=O)C(C(C)c2ccc(CC(=O)O)cc2)=C(C)C1=O (stereo not drawn) | 142 to 143
14 | COc1ccc(O)c(C(C)(O)c2ccccc2)c1 (stereo not drawn) | 114
15 | CCOC(=O)C1=C(Cl)/C(=N/OS(C)(=O)=O)CC(c2ccc(Cl)c(OC)c2F)N1 (stereo not drawn) | 60 to 62
16 | Clc1ccc(CCCN2CCc3cc(OC[C@H]4CO[C@](Cn5ccnc5)(c5ccc(Cl)cc5)O4)ccc3C2)cc1 (racemic) | 101 to 103
17 | CCc1noc2c(Cl)c3c(cc12)CC(C(=O)O)O3 (stereo not drawn) | 213 to 215
18 | CC1(C)C=C(N2CCNCC2=O)c2cnccc2O1 | 109 to 110
19 | Nc1ccc(N2C(=O)CNC2=O)cc1 | 230 to 231
20 | COc1cc2c(cc1OC)C(C(=O)Nc1c(C(C)C)cccc1C(C)C)SCC2 (stereo not drawn) | 72 to 74
21 | Fc1cc(Cl)c(Br)c(Cl)c1 | 83
22 | COC(=O)c1cnc(Cl)o1 | 35 to 50

Row | Structure (SMILES) | melting point [°C]
23 | C=CCOC(=O)c1ccccc1OS(=O)(=O)NC(=O)Nc1nc(OC)cc(OC)n1 | 110 to 112
24 | CC(C)c1cccc([N+](=O)[O-])c1C#N | 121 to 124
25 | Cc1ccc(-c2csc(/C=C/C(=O)Nc3ccc(CN(C)C4CCOCC4)cc3)c2)cc1 | 188 to 190
26 | CCn1nccc1C(=O)Nc1cc(Oc2ccc3nc(NC(=O)C4CC4)cn3n2)ccc1F | 209
27 | Nc1ccc(C(=O)N(CCN2CCC(C(=O)c3ccc(F)cc3)CC2)c2cccc(N)c2)cc1 | 108 to 110
28 | CCCCC1c2sccc2CCN1CCNC(=O)c1ccc(NS(C)(=O)=O)cc1 (stereo not drawn) | 98 to 105
29 | CCCc1nc2c(N)nc3cc(OCCN4CCOCC4)ccc3c2s1 | 122 to 125
30 | C=C(C)c1cccc(C(C)(C)N=C=O)c1 | 60 to 62
31 | N#Cc1cnn(-c2c(Cl)cc(C(F)(F)F)c(Cl)c2Cl)c1N | 186 to 187
32 | OC[C@H](O)CCOc1nc(N2CCNCC2)nc2ccccc12 | 151 to 156
33 | O=C(O)[C@@H]1Cc2cc(Cl)cc(Cl)c2O[C@@H]1C(F)(F)F | 100 to 101
34 | COC(=O)C(O[Si](C)(C)C(C)(C)C)c1ccccc1O (stereo not drawn) | 103 to 104
35 | C#CCN1C(=O)COc2cc(F)c(N(C(C)=O)C(=O)C3=C(C(=O)OC)CCCC3)cc21 | 153 to 154
36 | O=C(NCc1ccc(Cl)cc1)c1cnc2sc(CO)cc2c1O | 205 to 210
37 | Cc1nc(N2C[C@@H](C)N(Cc3cc(F)cc(F)c3)C2=O)sc1C(N)=O | 212 to 213
38 | CNC(=O)N1CC(Oc2cc(C(F)(F)F)ccc2F)C1 | 93.5 to 95
39 | CCSc1cc(C)nc(SCC)c1NC(=O)CCCCCCSc1nc2c(C)c(Cl)cc(C(C)C)c2o1 | 117 to 120
40 | CN(O)C(=O)C=Cc1ccc(Cl)c(O)c1 | 196
41 | CN(Cc1ccc(F)cc1)C1CCN(c2ccc(Cl)cc2)CC1 | 72 to 73
42 | COC(=O)c1cc2cc(SCc3sc(-c4ccc(C(F)(F)F)cc4)nc3C)ccc2o1 | 132 to 133
43 | CCCCCCCCC(=O)COS(=O)(=O)c1c(C)c(C)cc(C)c1C | 36 to 37.5
44 | OCCNc1ccnc2ccccc12 | 152 to 154

Row | Structure (SMILES) | melting point [°C]
45 | Cn1ccnc1Sc1ccc(Nc2c(C#N)cnc3cc(/C=C/CCOC4CCCCO4)ccc23)cc1Cl (stereo not drawn) | 217 to 220
46 | CNC(=O)c1nc(C)n2c1CN=C(c1ccccc1)c1cc(Cl)ccc1-2 | 260 to 263
47 | CCc1nn(-c2ccccn2)c2[nH]c3cc(F)c(F)cc3c(=O)c12 | 247 to 248
48 | O=C1Nc2ccccc2N2C(=O)OCC12 (stereo not drawn) | 230 to 231
49 | CC1(C)CC2(CC(C)(C)c3ccc(O)cc32)c2cc(O)ccc21 | 215 to 217
50 | CC(C)C1C(=O)N(CCl)S(=O)(=O)N1C (stereo not drawn) | 118 to 120
51 | COC(=O)c1cc2c(cc1O)CCCC2 | 41 to 42
52 | CC(=O)ON=C(N)c1cccc(C(=O)NCCCNC(=O)[C@@H]2CCCN2S(=O)(=O)c2ccc(Cl)c(COc3cccc4c(C)cc(C)nc34)c2Cl)c1 | 100 to 104
53 | OC(CSc1ncccn1)CN1CCN(C(c2ccc(F)cc2)c2ccc(F)cc2)CC1 (stereo not drawn) | 75 to 76
54 | CN1C(=O)CC(=O)N(c2ccccc2)c2cc(Cl)ccc21 | 166 to 168
55 | CC(=O)c1cc(C(F)(F)F)nn1-c1ccc(NC(=O)c2ccccc2F)cc1 | 188 to 189
56 | COC(=O)/C=C/c1ccc(-c2nc(NC(C)=O)sc2Cc2ccc(S(C)(=O)=O)cc2)cc1 | 217 to 218
57 | O=C(CN1CCCCC1)Nc1ccc(-c2cc(-c3c[nH]nc3-c3ccccn3)ccn2)cc1 | 180
58 | Cc1c(O)ccc2c(=O)c(-c3ccc4c(c3)OCO4)coc12 | 270 to 272
59 | Cc1oc2c(C)c(C)c(NCc3ccc(F)cc3)c(C)c2c1-c1ccc(C(C)C)cc1 | 95 to 97
60 | CCOC(=O)C1[C@@H]2[C@@H](O)[C@@H]3O[C@H](c4ccc(C(C)(C)C)cc4)OC[C@H]3O[C@H]12 (stereo partly drawn) | 113 to 116
61 | CC(CO)(CO)Nc1nc(SCc2cccc(F)c2F)nc2nc(N)cnc12 | 220 to 227
62 | COC(=O)c1ccc(-c2nc(-c3ccc(C(F)(F)F)cc3)no2)c(NC(=O)C(F)(F)F)c1 | 188 to 189
63 | C=CC(CC(O)C(CC1CCCCC1)NC(=O)C(Cc1c[nH]cn1)NC(=O)C(Cc1ccccc1)NC(=O)OC(C)(C)C)C(C)C (stereo not drawn) | 161
64 | CN(C)C(=O)Nc1ccc(Oc2ccc(C(F)(F)F)cc2Cl)cc1 | 140
65 | CCc1c(C)nc2n1N=C(c1ccc(N)cc1)c1cc3c(cc1C2)OCO3 | 227 to 228

The next lines start with the values.

Row | melting point [°C] | Structure (SMILES)
66 | 129 | COc1ccc(C(=O)COc2ccc(C(=O)OCc3ccccc3)c(O)c2)cc1C12CC3CC(CC(C3)C1)C2
67 | 148 | CSc1ccc(-c2nn(Cc3cccnc3)c(=O)cc2-c2ccc(Cl)cc2)cc1
68 | 97 to 98 | CC[C@@]12CC(=O)[C@](O)(c3ccccc3)C[C@H]1CCc1cc(O)ccc12
69 | 240 to 242 | NC(=O)c1c(Cl)c(-c2ccccc2)n2c1CN(S(=O)(=O)c1cccs1)CC2
70 | 87 to 88 | C=CCc1cc(Nc2ccn(-c3ccccc3)n2)cc(CC=C)c1O
71 | 189 to 190 | Clc1ccc(Nc2nc3ccccc3c3[nH]c(C4CCCC4)nc23)cc1
72 | 168 to 170 | CN1Cc2ccccc2C(=O)c2cc(CC(=O)O)cc(Cl)c21
73 | 183 to 184 | CCNc1nc(NCC)nc(-c2ccc(-c3ccccc3)cc2)n1
74 | 218 to 220 | Cc1c(CC(=O)O)c2ccccc2c(=O)n1Cc1ccc(Cl)c(Cl)c1
75 | 184 to 185 | CCCN1C(=O)N2C[C@@H](Cc3ccccc3)N=C2c2c1nc(C=O)n2Cc1ccccc1
76 | 74.9 | COC(=O)C=C1CN2C(=O)N(c3cc(Cl)cc(Cl)c3)C(=O)C2(Cc2ccc(Br)cc2)C1 (stereo not drawn)
77 | 132 to 133 | C[C@H]1CN(Cc2ccccc2)C[C@H]1NC(=O)OC(C)(C)C (relative stereo)
78 | 125 to 127 | Cc1c(NS(=O)(=O)c2ccccc2)cc(C(C)(C)C)cc1SC1=C(O)CC(CCc2ccc(O)cc2)(C2CCCC2)OC1=O (racemic)
79 | 168 to 172 | O=C(c1ccccc1SSc1ccccc1C(=O)N1CCC(O)C1)N1CCC(O)C1 (stereo not drawn)
80 | 103 to 105 | Nc1cccc(NC(=O)C(=O)N2CCC(Cc3ccccc3)CC2)c1
81 | 135 to 136 | CN1CCc2cc(Cl)c(NC=O)cc2[C@@H](c2ccccc2)C1
82 | 121 to 125 | O=C(Nc1cccc(-c2ccnc3c(C(=O)c4cccs4)cnn23)c1)OCc1ccccn1

Row | melting point [°C] | Structure (SMILES)
83 | 138 to 140 | Cc1cc(=O)n2nc(SCc3ccc(Cl)cc3)sc2n1
84 | 194 to 196 | CCOC(=O)c1c(CN(C)c2ccccc2)nc2cc(OC)c(OC)cc2c1-c1ccc(OC)c(OC)c1
85 | 112 to 115 | CCOC(=O)C1(C(=O)N(Cc2ccccc2)Cc2ccccc2)CC(=O)N(Cc2ccccc2)C1 (stereo not drawn)
86 | 84 to 86 | CCC(C)C(C)CNc1cccc(-c2ccnc3c(C(=O)c4cccs4)cnn23)c1 (stereo not drawn)
87 | 209 to 210 | COc1cc(COc2nn(-c3ccccc3)cc2C(=O)O)ccc1OCc1nc(-c2ccccc2)oc1C
88 | 201 to 203 | Cc1c(C)c2ccc(OCCCN3CCC(NC(=O)c4ccccc4)CC3)cc2oc1=O
89 | 120 to 128 | COCCN1CCc2ccc(Nc3ncc(Cl)c(Nc4ccccc4S(=O)(=O)N4CCC(O)C4)n3)cc2CC1 (stereo not drawn)
90 | 129 to 130 | CSc1nn(C)c(=O)n1-c1ccccc1Oc1ccccc1
91 | 136 | O=C(Nc1ccccc1S(=O)(=O)c1ccccc1)N[C@@H](Cc1ccc(Oc2nccc3cnccc23)cc1)C(=O)O
92 | 240 to 242 | O=C1Nc2ccccc2Oc2sc3ccccc3c21
93 | 60 to 63 | NC(=O)C1CCN(CCOc2ccccc2CCc2ccccc2)CC1
94 | 237 to 238 | O=C(c1ccn2c1CSC2c1cccnc1)c1c[nH]c2ccccc12 (stereo not drawn)
95 | 218 to 219 | CCCCOc1nc(N)c2[nH]c(=O)n(CCCNS(=O)(=O)c3cccc(CC(=O)OC)c3)c2n1
96 | 207 | Cc1cc(-c2ccccc2)nc(N2CCN(c3ccc(O)cc3)CC2)c1C#N
97 | 126 to 127 | COc1cc(CO)ccc1OCc1nc(-c2ccccc2)cn1C
98 | 74 | COC(=S)OC(C(=O)OC(c1ccccc1)c1ccccc1)c1ccccc1 (stereo not drawn)
